# Test results reported in patent US8580809B2, “Filamin A-binding anti-inflammatory analgesic” (Pain Therapeutics, Inc., priority 2009, dated 2013).
# Target: T1, mu opiate receptor (MOR) (Rattus norvegicus, UniProt P33535)
# T1 construct: from tissue; host or cells: rat striatal membrane preparation
# Assay: MOR agonist activity using [35S]GTPγS binding assay in striatal membranes
# Format: biochemical
# Conditions: 0.1 μM compound, striatal membranes
# Procedure: To assess the mu opiate receptor (MOR) agonist activity of positive compounds from the FLNA screening, compounds were tested in a [^35S]GTPγS binding assay using striatal membranes.
# Striatal tissue was homogenized in 10 volumes of ice cold 25 mM HEPES buffer, pH 7.4, which contained 1 mM EGTA, 100 mM sucrose, 50 μg/ml leupeptin, 0.04 mM PMSF, 2 μg/ml soybean trypsin inhibitor and 0.2% 2-mercaptoethanol. The homogenates were centrifuged at 800×g for 5 minutes and the supernatants were centrifuged at 49,000×g for 20 minutes.
# The resultant striatal membrane preparation (200 μg) was admixed and maintained (incubated) at 30° C. for 5 minutes in reaction buffer as above that additionally contained 1 mM MgCl2 and 0.5 nM [^35S]GTPγS (0.1 μCi/assay, PerkinElmer Life and Analytical Sciences) in a total volume of 250 μl and continued for 5 minutes in the absence or presence of 0.1-10 μM of an assayed compound of interest. The reaction was terminated by dilution with 750 μl of ice-cold reaction buffer that contained 20 mM MgCl2 and 1 mM EGTA and immediate centrifugation at 16,000×g for 5 minutes.
# The resulting pellet was solubilized by sonicating for 10 seconds in 0.5 ml of immunoprecipitation buffer containing 0.5% digitonin, 0.2% sodium cholate and 0.5% NP-40. Normal rabbit serum (1 μl) was added to 1 ml of lysate and incubated at 25° C. for 30 minutes. Nonspecific immune complexes were removed by incubation with 25 μl of protein A/G-conjugated agarose beads at 25° C. for 30 minutes followed by centrifugation at 5,000×g at 4° C. for 5 minutes. The supernatant was divided and separately incubated at 25° C. for 30 minutes with antibodies raised against Gαo proteins (1:1,000 dilutions).
# The immunocomplexes so formed were collected by incubation at 25° C. for 30 minutes with 40 μl of agarose-conjugated protein A/G beads and centrifugation at 5,000×g at 4° C. for 5 minutes. The pellet was washed and suspended in buffer containing 50 mM Tris-HCl, pH 8.0, and 1% NP-40. The radioactivity in the suspension was determined by liquid scintillation spectrometry. […] DAMGO (H-Tyr-D-Ala-Gly-N-MePhe-Gly-OH; 1 or 10 μM) was used as a positive control.
# T1 sequence (P33535 whole entry): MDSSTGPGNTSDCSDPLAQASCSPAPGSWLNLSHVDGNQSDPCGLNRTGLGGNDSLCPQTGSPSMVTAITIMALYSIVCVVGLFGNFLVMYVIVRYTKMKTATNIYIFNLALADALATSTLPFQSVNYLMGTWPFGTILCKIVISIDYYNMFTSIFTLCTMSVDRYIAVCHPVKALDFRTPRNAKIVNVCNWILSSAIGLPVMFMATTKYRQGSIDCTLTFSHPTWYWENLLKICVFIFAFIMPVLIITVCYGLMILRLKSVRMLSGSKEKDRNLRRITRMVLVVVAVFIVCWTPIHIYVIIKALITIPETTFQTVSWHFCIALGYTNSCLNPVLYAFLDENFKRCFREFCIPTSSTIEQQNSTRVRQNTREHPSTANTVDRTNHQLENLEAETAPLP
row,Compound,"MOR agonist activity, [35S]GTPγS binding to Gαo, FLNA-binding compound as agonist 0.1 μM"
1,COc1ccc(S(=O)(=O)N2CCC3(CC2)OCCN3S(=O)(=O)c2ccc(OC)cc2)cc1 [Compound 7866],152.3%
2,Cc1ccc(S(=O)(=O)N2CCC3(CC2)OCCN3S(=O)(=O)c2ccc(C)cc2)cc1 [Compound C0001],129.3%
3,COc1cccc(S(=O)(=O)N2CCC3(CC2)OCCN3S(=O)(=O)c2cccc(OC)c2)c1 [Compound C0002],88.4%
4,COc1ccccc1S(=O)(=O)N1CCC2(CC1)OCCN2S(=O)(=O)c1ccccc1OC [Compound C0003],162.3%
5,N#Cc1ccccc1S(=O)(=O)N1CCC2(CC1)OCCN2S(=O)(=O)c1ccccc1C#N [Compound C0004],122.0%
6,O=S(=O)(c1cccc(OC(F)(F)F)c1)N1CCC2(CC1)OCCN2S(=O)(=O)c1cccc(OC(F)(F)F)c1 [Compound C0005],180.4%
7,O=S(=O)(c1ccc(OC(F)(F)F)cc1)N1CCC2(CC1)OCCN2S(=O)(=O)c1ccc(OC(F)(F)F)cc1 [Compound C0006],121.5%
8,CC(C)c1ccc(S(=O)(=O)N2CCC3(CC2)OCCN3S(=O)(=O)c2ccc(C(C)C)cc2)cc1 [Compound C0007],79.1%
9,N#Cc1ccc(S(=O)(=O)N2CCC3(CC2)OCCN3S(=O)(=O)c2ccc(C#N)cc2)cc1 [Compound C0008],71.2%
10,O=S(=O)(c1ccc(-c2ccccc2)cc1)N1CCC2(CC1)OCCN2S(=O)(=O)c1ccc(-c2ccccc2)cc1 [Compound C0010],136.5%
11,O=S(=O)(c1ccc(C(F)(F)F)cc1)N1CCC2(CC1)OCCN2S(=O)(=O)c1ccc(C(F)(F)F)cc1 [Compound C0012],96.8%
12,CC(=O)Nc1ccc(S(=O)(=O)N2CCC3(CC2)OCCN3S(=O)(=O)c2ccc(NC(C)=O)cc2)cc1 [Compound C0013],156.6%
13,Cc1cccc(S(=O)(=O)N2CCC3(CC2)OCCN3S(=O)(=O)c2cccc(C)c2)c1 [Compound C0014],144.9%
14,Cc1ccccc1S(=O)(=O)N1CCC2(CC1)OCCN2S(=O)(=O)c1ccccc1C [Compound C0015],138.7%

# Same assay, conditions: 1 μM compound + 1 μM β-funaltrexamine
row,Compound,"MOR agonist activity, [35S]GTPγS binding to Gαo, 1 μM + BFNA"
1,COc1ccc(S(=O)(=O)N2CCC3(CC2)OCCN3S(=O)(=O)c2ccc(OC)cc2)cc1 [Compound 7866],62.4%
2,Cc1ccc(S(=O)(=O)N2CCC3(CC2)OCCN3S(=O)(=O)c2ccc(C)cc2)cc1 [Compound C0001],33.9%
3,COc1cccc(S(=O)(=O)N2CCC3(CC2)OCCN3S(=O)(=O)c2cccc(OC)c2)c1 [Compound C0002],3.9%
4,COc1ccccc1S(=O)(=O)N1CCC2(CC1)OCCN2S(=O)(=O)c1ccccc1OC [Compound C0003],107.7%
5,N#Cc1ccccc1S(=O)(=O)N1CCC2(CC1)OCCN2S(=O)(=O)c1ccccc1C#N [Compound C0004],65.8%
6,O=S(=O)(c1cccc(OC(F)(F)F)c1)N1CCC2(CC1)OCCN2S(=O)(=O)c1cccc(OC(F)(F)F)c1 [Compound C0005],166.4%
7,O=S(=O)(c1ccc(OC(F)(F)F)cc1)N1CCC2(CC1)OCCN2S(=O)(=O)c1ccc(OC(F)(F)F)cc1 [Compound C0006],4.6%
8,CC(C)c1ccc(S(=O)(=O)N2CCC3(CC2)OCCN3S(=O)(=O)c2ccc(C(C)C)cc2)cc1 [Compound C0007],10.9%
9,N#Cc1ccc(S(=O)(=O)N2CCC3(CC2)OCCN3S(=O)(=O)c2ccc(C#N)cc2)cc1 [Compound C0008],2.8%
10,O=S(=O)(c1ccc(-c2ccccc2)cc1)N1CCC2(CC1)OCCN2S(=O)(=O)c1ccc(-c2ccccc2)cc1 [Compound C0010],89.1%
11,O=S(=O)(c1ccc(C(F)(F)F)cc1)N1CCC2(CC1)OCCN2S(=O)(=O)c1ccc(C(F)(F)F)cc1 [Compound C0012],184.4%
12,CC(=O)Nc1ccc(S(=O)(=O)N2CCC3(CC2)OCCN3S(=O)(=O)c2ccc(NC(C)=O)cc2)cc1 [Compound C0013],39.6%
13,Cc1cccc(S(=O)(=O)N2CCC3(CC2)OCCN3S(=O)(=O)c2cccc(C)c2)c1 [Compound C0014],76.3%
14,Cc1ccccc1S(=O)(=O)N1CCC2(CC1)OCCN2S(=O)(=O)c1ccccc1C [Compound C0015],126.8%

# Same assay, conditions: 1 μM compound, striatal membranes
row,Compound,"MOR agonist activity, [35S]GTPγS binding to Gαo, FLNA-binding compound as agonist 1 μM"
1,COc1ccc(S(=O)(=O)N2CCC3(CC2)OCCN3S(=O)(=O)c2ccc(OC)cc2)cc1 [Compound 7866],308.2%
2,Cc1ccc(S(=O)(=O)N2CCC3(CC2)OCCN3S(=O)(=O)c2ccc(C)cc2)cc1 [Compound C0001],184.3%
3,COc1cccc(S(=O)(=O)N2CCC3(CC2)OCCN3S(=O)(=O)c2cccc(OC)c2)c1 [Compound C0002],93.8%
4,COc1ccccc1S(=O)(=O)N1CCC2(CC1)OCCN2S(=O)(=O)c1ccccc1OC [Compound C0003],215.9%
5,N#Cc1ccccc1S(=O)(=O)N1CCC2(CC1)OCCN2S(=O)(=O)c1ccccc1C#N [Compound C0004],228.4%
6,O=S(=O)(c1cccc(OC(F)(F)F)c1)N1CCC2(CC1)OCCN2S(=O)(=O)c1cccc(OC(F)(F)F)c1 [Compound C0005],227.2%
7,O=S(=O)(c1ccc(OC(F)(F)F)cc1)N1CCC2(CC1)OCCN2S(=O)(=O)c1ccc(OC(F)(F)F)cc1 [Compound C0006],204.0%
8,CC(C)c1ccc(S(=O)(=O)N2CCC3(CC2)OCCN3S(=O)(=O)c2ccc(C(C)C)cc2)cc1 [Compound C0007],195.0%
9,N#Cc1ccc(S(=O)(=O)N2CCC3(CC2)OCCN3S(=O)(=O)c2ccc(C#N)cc2)cc1 [Compound C0008],201.6%
10,O=S(=O)(c1ccc(-c2ccccc2)cc1)N1CCC2(CC1)OCCN2S(=O)(=O)c1ccc(-c2ccccc2)cc1 [Compound C0010],307.0%
11,O=S(=O)(c1ccc(C(F)(F)F)cc1)N1CCC2(CC1)OCCN2S(=O)(=O)c1ccc(C(F)(F)F)cc1 [Compound C0012],224.8%
12,CC(=O)Nc1ccc(S(=O)(=O)N2CCC3(CC2)OCCN3S(=O)(=O)c2ccc(NC(C)=O)cc2)cc1 [Compound C0013],301.2%
13,Cc1cccc(S(=O)(=O)N2CCC3(CC2)OCCN3S(=O)(=O)c2cccc(C)c2)c1 [Compound C0014],153.5%
14,Cc1ccccc1S(=O)(=O)N1CCC2(CC1)OCCN2S(=O)(=O)c1ccccc1C [Compound C0015],204.7%
